Results taken from ChEMBL document CHEMBL4699623 (J Med Chem, 2020).
pKi: −log10 of the molar value.

Legend:
[1] = molecular target: T1, Alpha-2A adrenergic receptor (Rattus norvegicus, UniProt P22909); assay: Displacement of [3H]-clonidine from Sprague-Dawley rat alpha2 adrenergic receptor by radioligand binding assay
T1 sequence (P22909 whole entry): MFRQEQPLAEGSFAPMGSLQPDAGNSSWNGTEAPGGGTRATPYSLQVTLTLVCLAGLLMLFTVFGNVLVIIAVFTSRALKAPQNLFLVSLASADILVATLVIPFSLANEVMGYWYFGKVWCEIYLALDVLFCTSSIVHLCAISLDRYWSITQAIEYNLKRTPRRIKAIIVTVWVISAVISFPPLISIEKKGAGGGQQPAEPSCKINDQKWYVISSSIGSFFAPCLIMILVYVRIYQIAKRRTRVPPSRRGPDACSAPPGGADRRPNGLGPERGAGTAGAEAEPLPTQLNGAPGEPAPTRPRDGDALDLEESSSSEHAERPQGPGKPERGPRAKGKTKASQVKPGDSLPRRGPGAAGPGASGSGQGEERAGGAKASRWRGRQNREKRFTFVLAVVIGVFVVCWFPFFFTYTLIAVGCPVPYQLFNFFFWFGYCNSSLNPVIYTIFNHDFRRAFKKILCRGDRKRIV

[2] = molecular target: T2, Phenylethanolamine N-methyltransferase (Homo sapiens) (UniProt P11086)
T2 sequence (whole entry): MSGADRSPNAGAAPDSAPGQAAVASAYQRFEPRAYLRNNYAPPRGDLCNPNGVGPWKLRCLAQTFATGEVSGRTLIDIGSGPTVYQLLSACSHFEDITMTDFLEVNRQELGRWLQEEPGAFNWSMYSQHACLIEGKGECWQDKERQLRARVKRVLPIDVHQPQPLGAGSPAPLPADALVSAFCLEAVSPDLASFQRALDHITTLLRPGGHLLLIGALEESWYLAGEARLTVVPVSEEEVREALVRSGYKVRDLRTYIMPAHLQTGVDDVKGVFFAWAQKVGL

[3] = molecular target: T3, Phenylethanolamine N-methyltransferase (Homo sapiens, UniProt P11086); assay: Competitive inhibition of C-terminal hexahistidine tag in human recombinant PNMT expressed in Escherichia coli assessed as inhibition constant using AdoMet as substrate in presence of 100 uM PEA as co-substrate by Sigma-plot analysis
T3 sequence (P11086 whole entry): T2 sequence (whole entry)

| pKi [3] | SMILES | pKi [1] | Kis [2] [µM] |
| --- | --- | --- | --- |
|  | NCC1Cc2ccccc2CN1 (stereo not given) | 5.82 | 1.4 |
|  | NC(=O)C1Cc2ccccc2CN1 (stereo not given) | 3.60 | 31 |
| 4.85 | Nc1ncnc2c1ncn2[C@@H]1O[C@H](CSCC[C@H](N)C(=O)O)[C@@H](O)[C@H]1O [S-ADENOSYLHOMOCYSTEINE] |  |  |
